Where two headings read alike, the source gives them in different places.
Columns and labels:
SMN2 = SMN2 splicing pattern, semi-quantitative RT-PCR in SMA-like MEFs; assay type: cell-based, mouse; set-up: key to SMN2 splicing pattern MEF: −: no effect; +: effective; +++: most effective
Crk = details: SMN2-NSC34 cells
Description: (§1) Western blot analysis. Cells treated by dsRNA, compounds or Stat5A1*6 transfected were detached by scraping, pelletting and rinsing in PBS. Cell pellets were collected after centrifugation and lysed on ice in modified RIPA buffer (50 mM Tris-HCl (pH7.4), 1% NP-40, 0.25% deoxycholic acid, 0.15M NaCl, 1 mM EDTA, 1 mM PMSF/NaF/sodium orthovanadate, and protease inhibitors cocktail (Roche, Mannheim, Germany) for 30 min. After centrifugation, the supernatants were collected and kept frozen at −20° C. Protein concentrations were determined by Bio-Rad protein assay method. For Western blot analysis, protein samples were boiled for 5 min and electrophoresed on 8% or 10% SDS-polyacrylamide gel in a 1× running buffer (25 mM Tris, 192 mM glycine, 3.4 mM SDS, pH 8.3) and subsequently electrotransferred to Polyvinylidene Fluoride tansfer membrane (Pall, Pensacola, Fla.) using a TE 22 mini-tank transfer unit (Amersham Biosciences, San Francisco, Calif.) at 35 volts overnight in transfer buffer (25 mM Tris, 192 mM glycine, 20% methanol, pH8.3). The blotting membranes were incubated in blocking solution (PBS, 5% non-fat milk, 0.2% Tween-20) for 1 hour at room temperature, and then incubated in the same solution with the primary antibody (human-specific SMN/1:1000; SMN/1:5000, Transduction Laboratories, Lexington, Ky.; phospho-Stat5a/b/1:1000, Cell signaling, Beverly, Mass.; phospho-Jak2/1:1000, Upstate, Lake Placid, N.Y.; Flag BioM2/1:1000, Sigma, St. Louis, MO; c-myc/1:200, Santa Cruz Biotech, Santa Cruz, Calif.; α-Tubilin/1:10000, Upstate, Lake Placid, N.Y., MO), overnight at 4° C. The membranes were washed and incubated in the blocking solution with the proper HRP-conjugated secondary antibody at 1/5000 dilution (Chemicon, Temecula, Calif.) for 1 hour at room temperature. After washing three times in PBS containing 0.1% Tween-20, the signals were visualized by autoradiography (Fuji Medical X-ray film, Fuji Photos, Tokyo) using enhanced chemi-luminescence (ECL detection system; Perkin-Elmer, Boston, Calif.). Western blot quantification was performed by scanning the auto-radiographs with a computerized densitometer. Signal intensities were determined by densitometry analysis (Fuji film LAS-1000 plus pictography) using the program Phoreticx 1D (Phoreticx International).

GRB14 = details: SMN2-NSC34 cells
Description: as §1

GRB2 = details: SMN2-NSC34 cells
Description: as §1

Jak1 (pY1022/pY1023) = details: SMN2-NSC34 cells
Description: as §1

KAP = details: SMN2-NSC34 cells
Description: as §1

LAR = details: SMN2-NSC34 cells
Description: as §1

MKP2 = details: SMN2-NSC34 cells
Description: as §1

NCK = details: SMN2-NSC34 cells
Description: as §1

PI3-Kinase = details: SMN2-NSC34 cells
Description: as §1

PTP1B = details: SMN2-NSC34 cells
Description: as §1

PTP1C/SHP1 = details: SMN2-NSC34 cells
Description: as §1

RPTPα = details: SMN2-NSC34 cells
Description: as §1

RPTPβ = details: SMN2-NSC34 cells
Description: as §1

SHC = details: SMN2-NSC34 cells
Description: as §1

ShcC = details: SMN2-NSC34 cells
Description: as §1

ERK1/2 (pT202/pY204) = assay: Signaling pathway screen in SMN2-NSC34 cells; assay type: cell-based, mouse
P38 (pT180/pY182) = assay: Signaling pathway screen in SMN2-NSC34 cells; assay type: cell-based, mouse
Stat1 (pY701) = assay: Signaling pathway screen in SMN2-NSC34 cells; assay type: cell-based, mouse
Stat2 (pY705) = assay: Signaling pathway screen in SMN2-NSC34 cells; assay type: cell-based, mouse
Stat3 (pY705) = assay: Signaling pathway screen in SMN2-NSC34 cells; assay type: cell-based, mouse

Sodium vanadate was tested. Which “SMN2 splicing pattern MEF” value (SMN2) did it give?
The value was “+++”.

What about the “influence on SMN2 expression” value (SMN2) of the same substance?
The value was “found to influence SMN2 expression”.

What about the Crk cellular response (Crk; 4 hrs) of the same substance?
Its Crk cellular response is “+/−”.

And the Crk cellular response (Crk; 8 hrs)?
Its Crk cellular response is “+/−”.

What about the GRB14 cellular response (GRB14; 4 hrs) of the same substance?
The GRB14 cellular response was “+/−”.

And the GRB14 cellular response (GRB14; 8 hrs)?
The GRB14 cellular response was “+/−”.

And the GRB2 cellular response (GRB2; 4 hrs)?
Its GRB2 cellular response is “+/−”.

What about the GRB2 cellular response (GRB2; 8 hrs) of the same substance?
The GRB2 cellular response was “+/−”.

And the “Jak1 (pY1022/pY1023) cellular response” value (Jak1 (pY1022/pY1023); 4 hrs)?
Its value is “+/−”.

And the “Jak1 (pY1022/pY1023) cellular response” value (Jak1 (pY1022/pY1023); 8 hrs)?
Its value is “+”.

What about the KAP cellular response (KAP; 4 hrs) of the same substance?
The KAP cellular response was “+/−”.

What about the KAP cellular response (KAP; 8 hrs) of the same substance?
The KAP cellular response was “−”.

What about the LAR cellular response (LAR; 4 hrs) of the same substance?
The LAR cellular response was “+/−”.

What about the LAR cellular response (LAR; 8 hrs) of the same substance?
The LAR cellular response was “+/−”.

What about the MKP2 cellular response (MKP2; 4 hrs) of the same substance?
The MKP2 cellular response was “−”.

What about the MKP2 cellular response (MKP2; 8 hrs) of the same substance?
Its MKP2 cellular response is “−”.

What about the NCK cellular response (NCK; 4 hrs) of the same substance?
Its NCK cellular response is “+/−”.

What about the NCK cellular response (NCK; 8 hrs) of the same substance?
Its NCK cellular response is “+/−”.

What about the PI3-Kinase cellular response (PI3-Kinase; 4 hrs) of the same substance?
The PI3-Kinase cellular response was “+/−”.

And the PI3-Kinase cellular response (PI3-Kinase; 8 hrs)?
Its PI3-Kinase cellular response is “+/−”.

And the PTP1B cellular response (PTP1B; 4 hrs)?
The PTP1B cellular response was “+/−”.

And the PTP1B cellular response (PTP1B; 8 hrs)?
Its PTP1B cellular response is “−”.

What about the PTP1C/SHP1 cellular response (PTP1C/SHP1; 4 hrs) of the same substance?
Its PTP1C/SHP1 cellular response is “+/−”.

And the PTP1C/SHP1 cellular response (PTP1C/SHP1; 8 hrs)?
Its PTP1C/SHP1 cellular response is “−”.

What about the RPTPα cellular response (RPTPα; 4 hrs) of the same substance?
The RPTPα cellular response was “+/−”.

And the RPTPα cellular response (RPTPα; 8 hrs)?
The RPTPα cellular response was “−”.

What about the RPTPβ cellular response (RPTPβ; 4 hrs) of the same substance?
The RPTPβ cellular response was “+/−”.

And the RPTPβ cellular response (RPTPβ; 8 hrs)?
The RPTPβ cellular response was “+/−”.

And the SHC cellular response (SHC; 4 hrs)?
Its SHC cellular response is “+/−”.

And the SHC cellular response (SHC; 8 hrs)?
Its SHC cellular response is “+/−”.

And the ShcC cellular response (ShcC; 4 hrs)?
Its ShcC cellular response is “+/−”.

And the ShcC cellular response (ShcC; 8 hrs)?
The ShcC cellular response was “+/−”.

What about the “ERK1/2 (pT202/pY204) cellular response” value (ERK1/2 (pT202/pY204); 4 hrs) of the same substance?
The value was “+”.

And the “ERK1/2 (pT202/pY204) cellular response” value (ERK1/2 (pT202/pY204); 8 hrs)?
Its value is “++”.

What about the “P38 (pT180/pY182) cellular response” value (P38 (pT180/pY182); 4 hrs) of the same substance?
Its value is “+/−”.

And the “P38 (pT180/pY182) cellular response” value (P38 (pT180/pY182); 8 hrs)?
The value was “+”.

And the “Stat1 (pY701) cellular response” value (Stat1 (pY701); 4 hrs)?
The value was “−”.

And the “Stat1 (pY701) cellular response” value (Stat1 (pY701); 8 hrs)?
The value was “+/−”.

What about the “Stat2 (pY705) cellular response” value (Stat2 (pY705); 4 hrs) of the same substance?
The value was “+/−”.

And the “Stat2 (pY705) cellular response” value (Stat2 (pY705); 8 hrs)?
Its value is “+/−”.

And the “Stat3 (pY705) cellular response” value (Stat3 (pY705); 4 hrs)?
The value was “+”.

What about the “Stat3 (pY705) cellular response” value (Stat3 (pY705); 8 hrs) of the same substance?
The value was “++”.
